Results taken from patent US6770784B2, “Use of γ-hydroxybutyric acid amides in the treatment of drug addiction and in particular of alcoholism” (Laboratorio Farmaceutico C.T. S.r.l., priority 1996, dated 2004).

Tests used:
[1] = system: motor activity of the rat; assay: Effects on the motor activity of the rat; type: in vivo; settings: i.p., first half hour after administration
Method: Utilizing these preliminary goods results, the effects of said compounds were studied on the rats motor activity. This experiment permits to obtain a more objective evaluation about the effectiveness of the tested molecules, confirming and specifying the effective dosages, start and duration of the effects.
For these tests too, rats were subdvided into two groups: a control group of rats treated with the solvent and a positive control group consisting of rats treated i.p. with 300 mg/kg/2 ml GHB sodium salt in the aforesaid solvent.
GHB was systematically used as a reference: when administered at the above doses its motor reducing action spans a wide variation range.
Table 3—Effects on the Motor Activity Produced by Some Benzylamido Derivatives of GHB Compared With a 300 mg/kg Dose of GHB (Sedative Dose)
The following table reports data referred to the first half hour after administration. The per cent decreases in motor activity in respect of GHB are reported.

[2] = system: rats; assay: General neuropharmacological profile: behaviour observation (excitation, bursts, sedation) after i.p. administration; type: in vivo; settings: rat; for Neuropharmacological profile: different dosage levels; for Potency compared with GHB / Duration of action compared with GHB: excitatory effects
Method: The tests, which were intended to evaluate the neuropharmacological activity of the amides of the invention, were conducted on rats, because most of the data available in the literature concern said animal species.
The time at which the effects started, their intensity and duration were recorded.
Molecules were evaluated by systematically using a control group, in which rats had been treated with the utilized solvent, and a positive control group, in which rats had been treated intraperitoneally (i.p.) with a standard dose of GHB sodium salt (100 mg/kg) in 2 ml. GHB and the assayed amides were administered in 50% DMSO in distilled water.
Said dose of drug, used as a reference, produced typical excitatory effects, characterized by the onset of generic excitation accompanied by more particular paroxysms, the so-called BURSTS of excitation.
Generic excitation was characterized by an increased motor activity, extremely sharp and jerky movements, higher reactivity and shakes.
“Bursts” of excitation were typical and well recognizable: the animals fought and frantically pursued each other.
Recordings concerned the number of “bursts”, the time of their onset after treatment, their intensity, the partial or total involvement of treated animals, the duration of the single episodes.
The sedation produced by higher doses of the molecules examined was evaluated analogously: time of onset, degree of sedation, partial or total involvement, duration of the effects.
Table 2—General Neuropharmacological Profile of Benzylamido Derivatives of GHB Compared With a 100 mq/kg Dose of GHB (Excitatory Dose)

[3] = cited from earlier work

CCCNC(=O)CCCO [Compound 2)]
< % (per cent decrease in motor activity) ([1]; dose 300 mg/kg): 82%

Nc1ccc(CNC(=O)CCCO)cc1 [Compound 3)]
Neuropharmacological profile [2]: biphasic neuropharmacological profile | Excitatory effects Duration ([2]; dose 25-50 mg/kg): 60 min | Excitatory effects Start ([2]; dose 25-50 mg/kg): 30 min | Potency compared with GHB [2]: more powerful than GHB

O=C(CCCO)NCc1ccc(Cl)cc1 [Compound 4)]
Excitatory effects Duration ([2]; dose 50-100 mg/kg): 45 min | Excitatory effects Start ([2]; dose 50-100 mg/kg): 30 min | < % (per cent decrease in motor activity) ([1]; dose 100 mg/kg): 0% | < % (per cent decrease in motor activity) ([1]; dose 300 mg/kg): 80%

Cc1ccc(CNC(=O)CCCO)cc1 [Compound 5)]
Potency (dose) and duration of action compared with GHB [2]: substantially superimposable to GHB acid | Dosage required for excitatory effects ([2]; GHB reference excitatory dose 100 mg/kg): 100 mg/kg | Neuropharmacological profile [2]: biphasic neuropharmacological profile | Excitatory effects Start ([2]; dose 100 mg/kg): 20 min | < % (per cent decrease in motor activity) ([1]; dose 300 mg/kg): 77%

COc1ccc(CNC(=O)CCCO)cc1 [Compound 6)]
Excitatory effects Duration ([2]; dose 25-50 mg/kg): 45 min | Excitatory effects Start ([2]; dose 25-50 mg/kg): 45 min | < % (per cent decrease in motor activity) ([1]; dose 300 mg/kg): 57%

COCCCC(=O)NCc1ccc(C)cc1 [Compound 7)]
Potency (dose) and duration of action compared with GHB [2]: better than those of GHB | Neuropharmacological profile [2]: biphasic neuropharmacological profile | Excitatory effects Start ([2]; dose 25-50 mg/kg): 20 min | Duration of action compared with GHB [2]: longer duration of action | Potency compared with GHB [2]: more powerful than GHB | < % (per cent decrease in motor activity) ([1]; dose 100 mg/kg): 76%

COc1cc(CNC(=O)CCCO)cc(OC)c1 [Compound 8)]
Excitatory effects Duration ([2]; dose 100 mg/kg): 30 min | Excitatory effects Start ([2]; dose 100 mg/kg): 60 min | < % (per cent decrease in motor activity) ([1]; dose 300 mg/kg): 68%

O=C(CCCO)NCc1cccnc1 [Compound 9)]
Excitatory effects Duration ([2]; dose 100 mg/kg): 15 min | Excitatory effects Start ([2]; dose 100 mg/kg): 60 min | < % (per cent decrease in motor activity) ([1]; dose 300 mg/kg): 72% | < % (per cent decrease in motor activity) ([1]; dose 100-200 mg/kg): 0%

COCCCC(=O)NCc1ccccc1 [Compound 10)]
Neuropharmacological profile [2]: biphasic neuropharmacological profile | Excitatory effects Duration ([2]; dose 25-50 mg/kg): 30 min | Excitatory effects Start ([2]; dose 25-50 mg/kg): 20 min | Potency compared with GHB [2]: more powerful than GHB | < % (per cent decrease in motor activity) ([1]; dose 100 mg/kg): 42%

COCCCC(=O)NCc1ccc(Cl)cc1 [Compound 11)]
Neuropharmacological profile [2]: biphasic neuropharmacological profile | Excitatory effects Duration ([2]; dose 25-50 mg/kg): 60 min | Excitatory effects Start ([2]; dose 25-50 mg/kg): 20 min | Potency compared with GHB [2]: more powerful than GHB | < % (per cent decrease in motor activity) ([1]; dose 100 mg/kg): 70%

CCOCCCC(=O)NCc1ccc(C)cc1 [Compound 12)]
Neuropharmacological profile [2]: biphasic neuropharmacological profile | Excitatory effects Duration ([2]; dose 25-50 mg/kg): 30 min | Excitatory effects Start ([2]; dose 25-50 mg/kg): 60 min | Potency compared with GHB [2]: more powerful than GHB | < % (per cent decrease in motor activity) ([1]; dose 100 mg/kg): 54.5%

CCCOCCCC(=O)NCc1ccc(C)cc1 [Compound 13)]
Neuropharmacological profile [2]: biphasic neuropharmacological profile | Excitatory effects Duration ([2]; dose 100 mg/kg): 30 min | Excitatory effects Start ([2]; dose 100 mg/kg): 45 min | < % (per cent decrease in motor activity) ([1]; dose 100 mg/kg): 58%

COCCCC(=O)NCc1cccc2ccccc12 [Compound 14)]
Potency (dose) and duration of action compared with GHB [2]: better than those of GHB | Neuropharmacological profile [2]: biphasic neuropharmacological profile | Excitatory effects Duration ([2]; dose 25-50 mg/kg): 180 min | Excitatory effects Start ([2]; dose 25-50 mg/kg): 30 min | Duration of action compared with GHB [2]: longer duration of action | Potency compared with GHB [2]: more powerful than GHB | < % (per cent decrease in motor activity) ([1]; dose 50 mg/kg): 65% | < % (per cent decrease in motor activity) ([1]; dose 100 mg/kg): 75%

COCCCC(=O)NCc1ccc(C(F)(F)F)cc1 [Compound 15)]
Potency (dose) and duration of action compared with GHB [2]: better than those of GHB | Neuropharmacological profile [2]: biphasic neuropharmacological profile | Excitatory effects Start ([2]; dose 25-50 mg/kg): 20 min | Duration of action compared with GHB [2]: longer duration of action | Potency compared with GHB [2]: more powerful than GHB | < % (per cent decrease in motor activity) ([1]; dose 25-50 mg/kg): 64%

O=C(O)CCCO [GHB, γ-hydroxybutyric acid]
Maximum concentration peak, time after administration ([3]; absorption by the gastroenteric apparatus): 35 to 40 min | Half-life time ([3]; in vivo): 20 to 25 min | Duration of action (excitatory effects) ([2]; GHB reference): 1 h | Neuropharmacological profile [2]: causes excitation at relatively low doses and sedation at higher doses
